Test results from patent US9821002B2, “Method for alleviating radiation injury with isorhamnetin-3-O-β-D-glucoside” (Sinotai Oncology Associate., Ltd., priority 2015, dated 2017).

Experiments:
[1] = tested on: NMuMG cells; assay: Cell cycle analysis (PI flow cytometry) after X-ray irradiation; format: cell-based, mouse; conditions: 2 h pretreatment, X-ray 20 Gy, 96 hours, mean ± SEM
Description: Four groups of NMuMG cells (i.e., a normal control group, an X-ray control group, and two experimental groups referred to as Experimental Groups 1 to 2) were prepared based on the procedure set forth in “Source and cultivation of cell lines” of “Experimental materials”. NMuMG cells in each group were cultivated using 5 mL of a corresponding medium shown in Table 1 and a 6-cm Petri dish in an amount of 2.5×10^5 cells per dish. The cultivation was conducted in an incubator (37° C., 5% CO2) for 24 hours.
Subsequently, medium was replaced with fresh medium, and a suitable amount of isorhamnetin-3-O-β-D-glucoside stock solution was added to the obtained culture in each of Experimental Groups 1 and 2, such that the final concentration of isorhamnetin-3-O-β-D-glucoside in the culture in Experimental Group 1 was 15 μM, and the final concentration of isorhamnetin-3-O-β-D-glucoside in the culture in Experimental Group 2 was 30 μM. Isorhamnetin-3-O-β-D-glucoside stock solution was not added to the cultures in the normal control group and the X-ray control group.
The culture in each group was then cultivated in an incubator (37° C., 5% CO2) for two hours. The resultant culture was used for the following cell cycle analysis.
The cultures in the X-ray control group and Experimental Groups 1 to 2, prepared according to section A of “Experimental procedures” in this example, were subjected to X-ray irradiation using a linear accelerator at a dose of 20 Gy. The culture in the normal control group received no X-ray irradiation treatment. The culture in each group was cultivated in an incubator (37° C., 5% CO2) for 96 hours, followed by centrifugation at 25° C. and 1200 rpm for 3 minutes. The supernatant was removed, and the precipitate thus obtained was washed with cold PBS (pH 7.4), followed by fixing the cells with 1 mL of cold methanol. The fixed cells thus obtained were left standing at −20° C. overnight. Following this, the fixed cells were washed with cold PBS (pH 7.4), and 250 μL of cold DNA dying solution which was prepared in ddH2O, containing 200 μg/mL RNase A solution (Sigma-Aldrich), 50 μg/mL propidium iodide (PI)(Sigma-Aldrich), and 0.1% (v/v) Triton X-100, was added to re-suspend the cells in each group. The cells were kept in the dark for 30 minutes at 37° C. to obtain stained cells.
Subsequently, the stained cells thus obtained were subjected to cell cycle analysis using BD Accuri™ C6 flow cytometer (BD Biosciences), and 1.0×10^6 cells were analyzed in each analysis. The cells emitted fluorescence when excited by a laser beam of argon ion at 488 nm, and the fluorescence intensity was detected at a wavelength of 585 nm. The percentage of the cells in each cell cycle phase was analyzed using BD Accuri™ C6 software (BD Biosciences).

[2] = tested on: HaCaT cells; assay: Apoptosis assay (FITC Annexin V/PI) after ultraviolet irradiation; format: cell-based, human; conditions: 2 h pretreatment, ultraviolet 50 mJ/cm^2, 48 hours, mean ± SEM
Description: Four groups of NMuMG cells (i.e., a normal control group referred to as Normal Control Group 1-A, an ultraviolet control group referred to as UV Control Group 1-A, and two experimental groups referred to as Experimental Groups 1-A to 2-A) and four groups of HaCaT cells (i.e., a normal control group referred to as Normal Control Group 1-B, an ultraviolet control group referred to as UV Control Group 1-B, and two experimental groups referred to as Experimental Groups 1-B to 2-B), were prepared based on the procedure set forth in “Source and cultivation of cell lines” of “Experimental materials”. The cells in each group were cultivated using 5 mL of a corresponding medium shown in Table 1 and a 6-cm Petri dish in an incubator (37° C., 5% CO2) for 24 hours. […]
Subsequently, the stained cells were analyzed using BD Accuri™ C6 flow cytometry, in which cells that could be stained with FITC Annexin V but not with PI (i.e., FITC Annexin V positive and PI negative) represented cells that were induced with early apoptosis; cells stained with both FITC Annexin V and PI (i.e., FITC Annexin V positive and PI positive) represented cells that were induced with late apoptosis; and cells that could not be stained with FITC Annexin V and PI (i.e., FITC Annexin V negative and PI negative) represented viable cells. […]

In the case of `COc1cc(-c2oc3cc(O)cc(O)c3c(=O)c2O[C@@H]2O[C@H](CO)[C@@H](O)[C@H](O)[C@H]2O)ccc1O` [isorhamnetin-3-O-β-D-glucoside], the “The percentage of the cells in each cell cycle phase: G0/G1” value ([1]; 15 μM) is reported as 21 ± 4.31 %, the “The percentage of the cells in each cell cycle phase: G2/M” value ([1]; 15 μM) is reported as 58.76 ± 8.97% and the “The percentage of the cells in each cell cycle phase: S” value ([1]; 15 μM) is reported as 6.4 ± 0.28%. For the same molecule, the “The percentage of the cells in each cell cycle phase: Sub-G1” value ([1]; 15 μM) was 16.11 ± 2.03 %, the “The percentage of the cells in each cell cycle phase: G0/G1” value ([1]; 30 μM) was 22.25 ± 4.87 % and the “The percentage of the cells in each cell cycle phase: G2/M” value ([1]; 30 μM) was 59.63 ± 10.78%. For the same molecule, the “The percentage of the cells in each cell cycle phase: S” value ([1]; 30 μM) was 5.88 ± 1.2%, the “The percentage of the cells in each cell cycle phase: Sub-G1” value ([1]; 30 μM) was 13.88 ± 1.46 % and the Apoptosis percentage ([2]; 50 μM) was 26.13 ± 7.26 %. The Apoptosis percentage ([2]; 100 μM) was 23 ± 2.19 %.
